Reference: US8987275B2, “Indazole compounds and their uses” (Dana-Farber Cancer Institute, Inc., priority 2010, dated 2015)
pIC50: −log10 of the molar value.

Tests used:
Format in all cases: cell-based
[1] = biological target: T1, Tel-Alk (Homo sapiens, UniProt Q9UM73); assay: IC50 of compounds against kinase target Tel-Alk (Table I)
T1 construct: TEL (ETV6); N-terminal fusion partner; human ETV6 would be P41212; the other entry of the earlier key: ETV6 (P41212, Transcription factor ETV6)
Procedure: (§1) All compounds are initially dissolved in DMSO to make 10 mM stock solutions, and then are serially diluted to obtain final concentrations for in vitro experiments.
(§2) All cell lines are cultured with 5% CO2 at 37° C. in RPMI (Mediatech, Inc., Herndon, Va.) with 10% fetal calf serum (FCS) and supplemented with 1% L-glutamine. Parental Ba/F3 cells are similarly cultured with 15% WEHI-conditioned medium as a source of IL-3. Transfected cell lines are cultured in media supplemented with 1 mg/ml G418.

[2] = biological target: T2, EML4-Alk (Homo sapiens, UniProt Q9UM73); assay: IC50 of compounds against kinase target EML4-Alk (Table I)
T2 construct: EML4 (N-terminal fusion partner); human EML4 would be Q9HC35; the other entry of the earlier key: EML4 (Q9HC35, Echinoderm microtubule-associated protein-like 4)
T2 sequence (Q9UM73 1058-1620 limits assumed): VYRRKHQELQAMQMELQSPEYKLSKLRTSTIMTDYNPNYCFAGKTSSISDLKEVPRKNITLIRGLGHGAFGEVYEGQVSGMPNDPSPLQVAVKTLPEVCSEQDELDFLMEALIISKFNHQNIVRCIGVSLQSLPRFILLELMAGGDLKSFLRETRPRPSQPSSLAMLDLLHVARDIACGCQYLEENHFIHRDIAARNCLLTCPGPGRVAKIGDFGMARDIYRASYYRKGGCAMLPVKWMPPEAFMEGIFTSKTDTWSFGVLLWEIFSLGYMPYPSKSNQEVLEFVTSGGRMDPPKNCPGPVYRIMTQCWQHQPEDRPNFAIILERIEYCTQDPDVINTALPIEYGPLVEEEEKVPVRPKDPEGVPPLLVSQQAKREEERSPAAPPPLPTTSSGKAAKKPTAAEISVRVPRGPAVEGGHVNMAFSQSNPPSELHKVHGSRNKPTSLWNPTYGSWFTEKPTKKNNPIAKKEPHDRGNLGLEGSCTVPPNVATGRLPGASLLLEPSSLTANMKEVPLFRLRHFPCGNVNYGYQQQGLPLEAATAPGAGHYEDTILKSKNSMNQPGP
Procedure: as §1, §2

[3] = biological target: T3, BCR-Abl T315I (Homo sapiens, UniProt P00519, T315I); assay: IC50 of compounds against kinase target T315I (Table I); details: read-out: IC50 T3151
T3 construct: BCR (N-terminal fusion partner of BCR-ABL); human BCR would be P11274; expressed in transfected cells; host or cells: Ba/F3 (or 32D) murine hematopoietic cells transfected with BCR-ABL T315I in pCI-neo; the other entry of the earlier key: BCR (P11274, Breakpoint cluster region protein)
Procedure: as §1
(§3) Ba/F3.p210 cells are obtained by transfecting the IL-3-dependent marine hematopoietic Ba/F3 cell line with a pGD vector containing p210BCR-ABL (B2A2) cDNA (Daley and Baltimore, 1988; Sattler et al., 1996; Okuda et al., 1996). Murine hematopoietic 32D cells are transduced with retrovirus to express p210 Bcr-ABL (32D.p210 cells) (Matulonis et al., 1993); the 32D-T315I cell line is transfected by electroporation with the imatinib resistant BCR-ABL construct (pCI-neo Mammalian Expression Vector; Promega (#E1841) harboring the point mutation T315I (Weisberg et al., 2005). Ba/F3 cells are stably transfected by electroporation with imatinib-resistant BCR-ABL constructs (pCI-neo Mammalian Expression Vector; Promega (#E1841) harboring the point mutations T315I, F317L, F486S, and M351T; transfectants are selected for neomycin resistance and IL-3-independent growth (Weisberg et al., 2005). Ba/F3 cells are stably transfected by electroporation with BCR-ABL point mutants identified in a random mutagenesis screen for BCR-ABL point mutants conferring resistance to nilotinib: Q252H, E292K, Y253C, Y253H, E255K, and V289L (Ray et al., 2007). Ba/F3 cells are made to express Tel-PDGFRβ as described by Golub et al., 1994, and Carroll et al., 1996. Constructs of D842V-PDGFRα and V561D-PDGFRα cDNA cloned into pcDNA3.1 are stably transfected into Ba/F3 cells by electroporation, and cells are selected for neomycin resistance and IL3-independent growth as described by Weisberg et al., 2006.
as §2

[4] = biological target: T4, Bcr-Abl (Homo sapiens, UniProt P00519); assay: IC50 of compounds against kinase target Bcr-Abl (Table I)
T4 construct: BCR (N-terminal fusion partner, p210 form, B2A2 junction); expressed in transfected cells; host or cells: Ba/F3.p210 (or 32D.p210) murine hematopoietic cells; the other entry of the earlier key: BCR (P11274, Breakpoint cluster region protein)
Procedure: as §1, §3, §2

T1 sequence (Q9UM73 1116-1392 limits assumed): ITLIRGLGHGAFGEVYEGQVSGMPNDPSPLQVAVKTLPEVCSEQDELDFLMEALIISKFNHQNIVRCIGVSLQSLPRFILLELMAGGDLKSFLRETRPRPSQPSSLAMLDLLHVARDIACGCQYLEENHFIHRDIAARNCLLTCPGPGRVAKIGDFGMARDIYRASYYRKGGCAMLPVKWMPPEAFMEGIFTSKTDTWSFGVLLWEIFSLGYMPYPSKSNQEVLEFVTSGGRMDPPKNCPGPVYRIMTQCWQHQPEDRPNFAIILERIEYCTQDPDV

Compound	pIC50 [1]	pIC50 [2]	pIC50 [3]	pIC50 [4]
Cc1cn(-c2cc(NC(=O)c3ccc(C)c(-c4ccc5c(NC(=O)C6CC6)n[nH]c5c4)c3)cc(C(F)(F)F)c2)cn1 [Compound 16]	< 5.00	< 5.00	< 5.00	6.66
CCN1CCN(Cc2ccc(NC(=O)c3cccc(-c4ccc5c(N)n[nH]c5c4)c3)cc2C(F)(F)F)CC1 [Compound 17]	< 5.00	< 5.00	5.15	6.11
CNc1n[nH]c2cc(-c3cccc(C(=O)Nc4cc(-n5cnc(C)c5)cc(C(F)(F)F)c4)c3)ccc12 [Compound 18]	< 5.00	< 5.00	5.51	5.80
CCN1CCN(Cc2ccc(NC(=O)c3cccc(-c4ccc5c(NC(=O)C6CC6)n[nH]c5c4)c3)cc2C(F)(F)F)CC1 [Compound 19]	7.52	7.22	6.47	6.19
CCN1CCN(Cc2ccc(C(=O)Nc3cccc(-c4ccc5c(N)n[nH]c5c4)c3)cc2C(F)(F)F)CC1 [Compound 20]	6.57	6.40	6.51	7.05
CCN1CCN(Cc2ccc(NC(=O)Nc3cccc(-c4ccc5c(NC(=O)C6CC6)n[nH]c5c4)c3)cc2C(F)(F)F)CC1 [Compound 21]	6.49	6.44	6.62	6.28
O=C(Nc1cccc(-c2ccc3c(NC(=O)C4CC4)n[nH]c3c2)c1)C1CC1 [Compound 22]	6.37	6.30	5.90	6.44
CCN1CCN(Cc2ccc(C(=O)Nc3cccc(-c4ccc5c(NC(=O)C6CC6)n[nH]c5c4)c3)cc2C(F)(F)F)CC1 [Compound 23]	< 5.00	< 5.00	< 5.00	< 5.00
CCN1CCN(Cc2ccc(NC(=O)c3cccc(Nc4ccc5c(NC(=O)C6CC6)n[nH]c5c4)c3)cc2C(F)(F)F)CC1 [Compound 24]	5.43	5.60	5.51	5.62
Cc1ccc(C(=O)Nc2cccc(C(F)(F)F)c2)cc1Nc1ccc2c(NC(=O)C3CC3)n[nH]c2c1 [Compound 25, 3-(3-(cyclopropanecarboxamido)-1H-indazol-6-ylamino)-4-methyl-N-(3-(trifluoro-methyl)phenyl)benzamide]	5.14	< 5.00	< 5.00	5.14
COc1cc(Nc2ccc3c(NC(=O)C4CC4)n[nH]c3c2)cc(C(=O)Nc2ccc(CN3CCN(C)CC3)c(C(F)(F)F)c2)c1 [Compound 26]	5.15	< 5.00		5.15
CCOC(=O)c1cccc(-c2ccc3c(NC(=O)c4ccc(N5CCN(C)CC5)cc4)n[nH]c3c2)c1 [Compound 27]	5.28	5.37	5.81	7.15
CN1CCN(c2ccc(C(=O)Nc3n[nH]c4cc(-c5cccc(C(=O)Nc6cccc(C(F)(F)F)c6)c5)ccc34)cc2)CC1 [Compound 28, 3-(3-(4-(4-methylpiperazin-1-yl)benzamido)-1H-indazol-6-yl)-N-(3-(trifluoromethyl)phenyl)benzamide]	< 5.00	< 5.00	< 5.00	5.84
